Test results as given in PMC7782499, “Progerinin, an optimized progerin-lamin A binding inhibitor, ameliorates premature senescence phenotypes of Hutchinson-Gilford progeria syndrome” (Communications Biology, 2021).
Values joined by “and” are separate entries in the source; they are usually repeats but may differ in a detail not shown here. Equal values may be shown once.

Experiments:
Assay type in all cases: in vitro ADME
[1] = target: T1, CYP1A2 (Homo sapiens, UniProt P05177); test: CYP inhibition, CYP1A2
T1 sequence (P05177 1-516): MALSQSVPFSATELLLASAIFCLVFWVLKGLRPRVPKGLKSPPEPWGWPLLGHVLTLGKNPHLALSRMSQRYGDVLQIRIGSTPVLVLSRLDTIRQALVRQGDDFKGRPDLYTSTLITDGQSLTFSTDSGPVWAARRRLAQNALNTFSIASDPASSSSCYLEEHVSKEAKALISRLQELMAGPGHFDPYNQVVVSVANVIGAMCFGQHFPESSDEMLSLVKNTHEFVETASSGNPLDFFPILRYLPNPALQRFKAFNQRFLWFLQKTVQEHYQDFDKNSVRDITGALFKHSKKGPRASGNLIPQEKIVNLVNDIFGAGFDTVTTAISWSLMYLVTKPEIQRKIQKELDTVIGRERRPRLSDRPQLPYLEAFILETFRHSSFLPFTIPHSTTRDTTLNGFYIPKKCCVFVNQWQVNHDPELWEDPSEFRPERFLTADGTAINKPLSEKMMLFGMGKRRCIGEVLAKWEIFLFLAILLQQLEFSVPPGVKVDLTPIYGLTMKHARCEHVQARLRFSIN
Experimental: (§1) At pre-set time-points, blood concentration of JH4 was determined by LC-MS/MS analysis[22],[23]. Other chemicals were also tested using similar protocol. In vitro ADME studies (plasma protein binding, CYP inhibition, microsomal stability, plasma stability, and hERG inhibition) were performed by New Drug Development Center (Daegu, Korea) using standard protocols[24],[25].

[2] = target: CYP2C19 (Homo sapiens, UniProt P33261); test: CYP inhibition, CYP2C19
Experimental: as §1, with “For PK analysis, 5 mg/kg of JH4 in 10% DMSO, 5% […] solution were intravenously injected and 10 mg/kg of JH4 in 10% NMP and 90% PEG400 solution were orally delivered. At” for “At”

[3] = target: CYP2C9 (Homo sapiens, UniProt P11712); test: CYP inhibition, CYP2C9; set-up: unit not given here
Experimental: as §1

Chain of CYP2C19 (P33261 whole entry): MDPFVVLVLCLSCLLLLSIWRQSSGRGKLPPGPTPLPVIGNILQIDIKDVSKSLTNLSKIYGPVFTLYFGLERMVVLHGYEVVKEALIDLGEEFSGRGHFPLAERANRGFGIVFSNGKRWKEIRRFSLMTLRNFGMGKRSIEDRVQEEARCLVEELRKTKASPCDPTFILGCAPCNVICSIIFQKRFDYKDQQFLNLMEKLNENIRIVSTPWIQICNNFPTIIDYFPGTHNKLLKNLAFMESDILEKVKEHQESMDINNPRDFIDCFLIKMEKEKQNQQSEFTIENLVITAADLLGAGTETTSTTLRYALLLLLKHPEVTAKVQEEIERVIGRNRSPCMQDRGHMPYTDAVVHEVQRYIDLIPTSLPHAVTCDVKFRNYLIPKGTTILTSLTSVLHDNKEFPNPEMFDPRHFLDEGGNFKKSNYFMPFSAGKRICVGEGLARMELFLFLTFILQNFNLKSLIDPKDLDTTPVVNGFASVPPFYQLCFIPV
Chain of CYP2C9 (P11712 whole entry): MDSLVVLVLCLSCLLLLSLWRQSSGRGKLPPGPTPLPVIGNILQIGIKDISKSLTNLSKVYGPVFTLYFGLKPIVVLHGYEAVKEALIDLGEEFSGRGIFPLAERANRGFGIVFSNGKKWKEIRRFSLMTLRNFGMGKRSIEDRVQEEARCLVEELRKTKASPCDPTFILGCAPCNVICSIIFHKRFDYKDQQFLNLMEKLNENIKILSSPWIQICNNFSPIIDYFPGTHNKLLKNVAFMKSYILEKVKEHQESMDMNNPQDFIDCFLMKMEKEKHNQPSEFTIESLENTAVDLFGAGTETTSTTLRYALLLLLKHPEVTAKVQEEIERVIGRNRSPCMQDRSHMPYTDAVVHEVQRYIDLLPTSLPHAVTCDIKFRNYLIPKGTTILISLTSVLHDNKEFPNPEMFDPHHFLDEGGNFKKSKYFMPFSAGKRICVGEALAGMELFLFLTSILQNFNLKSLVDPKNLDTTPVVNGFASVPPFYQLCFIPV

CC(=O)N1CCN(c2ccc(OCC3COC(Cn4ccnc4)(c4ccc(Cl)cc4Cl)O3)cc2)CC1 (stereo not drawn) [Ketoconazole, reference compound] was tested, and the CYP inhibition [1] was 99.1, the CYP inhibition [2] was 99.5 and > 100 and the CYP inhibition [3] was 100.
